Measured values taken from patent publication US9963461B2, “Phillygenin ibuprofen ester, preparation method therefor, and application thereof” (priority 2014, dated 2018).
Marks after values point to notes of the source that are not given here.

Legend:
influenza virus [1] = assay: Impact of the drugs on the virus-induced cytopathy (MTT); assay type: cell-based; conditions: influenza virus 100 TCID50, Vero cells, about the maximal non-cytotoxic concentration, 72 hours
parainfluenza virus [2] = assay: as above; assay type: cell-based; conditions: parainfluenza virus 100 TCID50, Vero cells, about the maximal non-cytotoxic concentration, 72 hours
[3] = tested on: Coxsackie virus A16 (CoxA16); assay: as above; assay type: cell-based; conditions: CoxA16 100 TCID50, Vero cells, about the maximal non-cytotoxic concentration, 72 hours
[4] = tested on: respiratory syncytial virus (RSV); assay: as above; assay type: cell-based; conditions: RSV 100 TCID50, Vero cells, about the maximal non-cytotoxic concentration, 72 hours
[5] = tested on: Herpes Simplex Virus type I (HSV-1); assay: as above; assay type: cell-based; conditions: HSV-I 100 TCID50, Vero cells, about the maximal non-cytotoxic concentration, 72 hours
Adenovirus (AdV) = assay: as above; assay type: cell-based; conditions: ADV 100 TCID50, Vero cells, about the maximal non-cytotoxic concentration, 72 hours
Enterovirus EV71 = assay: as above; assay type: cell-based; conditions: EV71 100 TCID50, Vero cells, about the maximal non-cytotoxic concentration, 72 hours
[6] = tested on: coxsackie virus B3 (CVB3); assay: as above; assay type: cell-based; conditions: CVB3 100 TCID50, Vero cells, about the maximal non-cytotoxic concentration, 72 hours
influenza virus [7] = assay type: in vivo, Kunming mice; conditions: influenza virus infected mice; 19.5 mg/kg/d intragastric, 5 days
parainfluenza virus [8] = assay type: in vivo, Kunming mice; conditions: parainfluenza virus infected mice; 19.5 mg/kg/d intragastric, 5 days
influenza virus [9] = assay type: in vivo, Kunming mice; conditions: lung suspensions, influenza virus infected mice; 19.5 mg/kg/d, 5 days
parainfluenza virus [10] = assay type: in vivo, Kunming mice; conditions: lung suspensions, parainfluenza virus infected mice; 19.5 mg/kg/d, 5 days
Vero cell = assay: Cytotoxicity test on Vero cell (MTT); conditions: 72 hours

CCOC(=O)C1=C[C@@H](OC(CC)CC)[C@H](NC(C)=O)[C@@H](N)C1 [Oseltamivir phosphate, oseltamivir phosphate]
antiviral effective rate (ER %) (influenza virus [1]): 81.76** %
antiviral effective rate (ER %) (parainfluenza virus [2]): 94.52** %
antiviral effective rate (ER %) [3]: 2.95%
antiviral effective rate (ER %) [4]: 37.60%
antiviral effective rate (ER %) [5]: 66.56** %
antiviral effective rate (ER %) (Adenovirus (AdV)): 10.31%
antiviral effective rate (ER %) (Enterovirus EV71): 51.86%
antiviral effective rate (ER %) [6]: 1.64%
Lung index (X ± S) (influenza virus [7]): 1.178 ± 0.066
Lung index Inhibitive rate (%) (influenza virus [7]): 19.84%
Lung index (X ± S) (parainfluenza virus [8]): 1.243 ± 0.052
Lung index Inhibitive rate (%) (parainfluenza virus [8]): 21.85%
Hemagglutination titer (InX) (influenza virus [9]): 20.50 ± 1.122
Hemagglutination titer Inhibitive rate (%) (influenza virus [9]): 36.73%
Hemagglutination titer (InX) (parainfluenza virus [10]): 22.05 ± 1.055
Hemagglutination titer Inhibitive rate (%) (parainfluenza virus [10]): 33.44%
Median toxic concentration (TC50) (Vero cell): 832 µg/mL
maximal non-toxic concentration (TC0) (Vero cell): 0.28 g/L
